{6-FAM} = 6-carboxyfluorescein label; {Dabcyl} = Dabcyl quencher
Key:
α-thrombin [1] = target: T1, α-thrombin (Homo sapiens, UniProt P00734); experiment: FRET-based signaling aptamer binding to α-thrombin (6-FAM quenching); conditions: 100 nM aptamer, 500 nM α-thrombin
T1 construct: Human oa-thrombin (M.W. ˜36.7 kDa); purchased Haematologic Technologies Inc. (Essex Junction, Vt.)
Text: Dye-labeled aptamers were obtained from Integrated DNA Technologies, Inc. (Coralville, Iowa). The sequences of the 15mer and 27mer thrombin-aptamer are 5′-GGT TGG TGT GGT TGG-3′ (SEQ ID NO 1), and 5′-ACCCGTGGTAGGGTAGGATGGGGTGGT-3′ (SEQ ID NO 2) respectively. For FRET-based assays, both aptamers were dual-labeled with 6-FAM at the 5′ end and Dabcyl at the 3′ end. For fluorescence anisotropy assays, both aptamer sequences were labeled with only TAMRA at the 3′ end. A control 15mer aptamer was labeled with only 6-FAM at the 3′ end. All aptamers were purified with HPLC. […]
Fluorescence measurements were performed on a Fluorolog-3 spectrofluorometer (Jobin Yvon Inc., Edison, N.J.). For FRET-based assays, the fluorescence of 6-FAM was monitored with an excitation wavelength of 488 mn and an emission wavelength of 515 nm. For anisotropy-based experiments, the fluorescence of TAMRA was monitored with 555 nm as the excitation and 580 mn as the emission wavelength. […] In the aptamer/thrombin binding experiments, a very small volume of α-thrombin at a high concentration was added to an aptamer solution in the cuvette to make a molar ratio of aptamer and thrombin 1:1, and the fluorescence signals were recorded before and after the addition. […]

thrombin = target: T2, thrombin (Homo sapiens, UniProt P00734); experiment: Kinetic studies of competitive assays (order of incubation, concentration dependence); format: binding; conditions: 100 nM FQ-15Ap, 100 nM thrombin, 500 nM HirF, 5° C., 6-FAM fluorescence
T2 construct: Human oa-thrombin (M.W. ˜36.7 kDa); purchased Haematologic Technologies Inc. (Essex Junction, Vt.)
Description: Experiments were conducted in a 100 μL cuvette in the spectrofluorometer. While the detection system was running, the reaction samples were quickly mixed together. Data were recorded from the point of mixing to when the signal reached the plateau and stabilized. The reaction was regarded completed when the signal was at the plateau. […] The temperatures of reactions were maintained using a RTE-111 water bath/circulator (Neslab Instruments, Inc., Newington, N.H.).
In order to evaluate the possibilities of such false negatives in the assays, a comparison of the reaction rates of aptamer and prey proteins with thrombin were conducted. One direct way to conduct the comparison is to change the order the aptamer and the prey protein are incubated with thrombin. In one experiment, the prey protein was incubated with thrombin first and then the aptamer was used to displace the prey protein from the thrombin/protein complex. In another experiment, the order of adding aptamer and prey protein to thrombin was reversed. […]
Another indirect method was also used to study the effects of aptamer on thrombin/protein interactions. […] Different concentrations of AT3 were added to thrombin/T-15Ap incubation solution and the anisotropy of the aptamer was monitored as AT3 would displace T-15Ap.

α-thrombin [2] = target: T1, α-thrombin; conditions: stated as known property; cited from earlier work
α-thrombin [3] = target: T1, α-thrombin; conditions: reported value used for the calculation; read-out: reported 15mer aptamer-thrombin Kd/AT; cited from earlier work
α-thrombin [4] = target: T1, α-thrombin; experiment: Fluorescence anisotropy of TAMRA-labeled aptamer on binding α-thrombin; conditions: aptamer/α-thrombin 1:1
Description: Fluorescence measurements were performed on a Fluorolog-3 spectrofluorometer (Jobin Yvon Inc., Edison, N.J.). For FRET-based assays, the fluorescence of 6-FAM was monitored with an excitation wavelength of 488 mn and an emission wavelength of 515 nm. For anisotropy-based experiments, the fluorescence of TAMRA was monitored with 555 nm as the excitation and 580 mn as the emission wavelength. Slit widths were varied to yield the best signals. All measurements were carried out in a 100 μL cuvette. In the aptamer/thrombin binding experiments, a very small volume of α-thrombin at a high concentration was added to an aptamer solution in the cuvette to make a molar ratio of aptamer and thrombin 1:1, and the fluorescence signals were recorded before and after the addition. […]
where the subscripts V and H refer to the orientation (vertical or horizontal) of the polarizers for the intensity measurements, with the first subscript indicating the position of the excitation polarizer and the second for the emission polarizer. G is the G-factor of the spectrofluorometer, which is calculated as G=IHV/IHH. […] For a certain dye, the G-factor would be measured and used throughout the experiments that used the same dye. […] For TAMRA, all intensities were measured at an emission wavelength of 580 nm with an excitation wavelength of 555 nm. […]

5′-(6-FAM)-ACCCGTGGTAGGGTAGGATGGGGTGGT-(Dabcyl)-3′ [FQ-27Ap]
6-FAM fluorescence change upon addition of α-thrombin (α-thrombin [1]): decreased 6-FAM fluorescence

5′-(6-FAM)-GGT TGG TGT GGT TGG-(Dabcyl)-3′ (DNA GGTTGGTGTGGTTGG; DNA, 5' {6-FAM}, 3' {Dabcyl}, backbone not given here) [FQ-15Ap, 15mer thrombin aptamer dual-labeled with 6-FAM at the 5′ end and Dabcyl at the 3′ end]
drop of 6-FAM fluorescence when excess α-thrombin was added (α-thrombin [1]; room temperature, 50 mM NaCl buffer): about 55% | kinetic profile depending on order of incubation with thrombin (thrombin): aptamer replacing HirF was even slower than HirF replacing aptamer

5′-ACCCGTGGTAGGGTAGGATGGGGTGGT-3′ (DNA ACCCGTGGTAGGGTAGGATGGGGTGGT; chemistry not given here) [27Ap]
capability to inhibit the enzymatic activity of thrombin (α-thrombin [2]): does not

5′-GGT TGG TGT GGT TGG-3′ [15Ap]
Kd (α-thrombin [3]): 75 nM | capability to inhibit the enzymatic activity of thrombin (α-thrombin [2]): has the protein-inhibition capability

5′-GGT TGG TGT GGT TGG-(TAMRA)-3′ [T-15Ap]
increase of anisotropy on mixing with α-thrombin (α-thrombin [4]): more than 30%

Reference: patent US20090208936A1, “IDENTIFICATION OF MOLECULAR INTERACTIONS AND THERAPEUTIC USES THEREOF” (Univeristy of Florida Research Foundations Inc., priority 2005, published 2009)
